Reference: publication PMC7180452, “Purine and Purine Isostere Derivatives of Ferrocene: An Evaluation of ADME, Antitumor and Electrochemical Properties” (Molecules, 2020)

Tests used:
[1] = Square-wave and cyclic voltammetry on glassy carbon electrode; format: physicochemical; conditions: SWV, 0.5 mol/L NaClO4, pH 9, vs Ag/AgCl
Excerpt: The electrochemical properties of 6-chloro-7-deazapurine and 6-chloropurine derivatives of ferrocene 11c, 13a and 15b on a glassy carbon electrode were studied using cyclic (CV) and square-wave voltammetry (SWV) in aqueous electrolyte solutions over a wide pH range. The pH was varied from 2 to 10 in order to determine the effect of pH on the voltammograms (net peak currents and potentials). […] The pH of the solution affects the voltammetric response of this compound, i.e., the oxidation of evaluated compounds 11c, 13a and 15b is strongly dependent on it.
The forward (if) and backward (ib) components of the net response (Δi = if − ib) are shown as well (inset in Figure 2). […] The peak P1 occurs in all supporting electrolytes (i.e., at 2 ≤ pH ≤ 10), while the peak P2 is only observed at pH ≥ 9 (see Figure 1). The potential of peak P1 is pH-independent. Comparing to the literature data, peak P1 can be ascribed to the following charge transfer reaction [Fe^II(C5H5)2] ⇌ [Fe^III(C5H5)2]^+ + e^− [44, 48].
All chemicals used in the experiments were of the best grade commercially available (Sigma-Aldrich) and were used without further purification. Stock standard solutions of compounds 11c, 13a, 15b (c = 2.0 × 10^−3 mol/L) and 6-chloropurine (c = 1.2 × 10^−2 mol/L) were prepared from dry pure substances in dimethyl sulfoxide (DMSO, p.a.), purchased from Kemika (Zagreb, Croatia). Stock standard solution of ethynyl ferrocene (c = 1.1 × 10^−2 mol/L) was prepared from dry pure substance in ethanol (Kemika). For the supporting electrolyte, analytical grade NaClO4 (Kemika) was used. Water was deionized by the Millipore Milli-Q system to the resistivity ≥ 18 MΩcm. Voltammetric measurements were carried out using the computer-controlled electrochemical system „PGSTAT 101“ (Eco-Chemie, Utrecht, The Netherlands), controlled by the electrochemical software “NOVA 1.5”. A three-electrode system (BioLogic, Claix, France) with glassy carbon electrode (GCE) of 3 mm in diameter as a working electrode, Ag/AgCl (3 mol/L NaCl) as a reference electrode and a platinum wire as a counter electrode were used. All potentials were expressed versus Ag/AgCl (3 mol/L NaCl) reference electrode. The supporting electrolyte (0.5 mol/L NaClO4), adjusted to the desired pH value, was placed in the electrochemical cell and the required aliquot of the standard analyte solution was added. The solution in the electrochemical cell was degassed with high purity nitrogen for 10 min before measurement, and the nitrogen blanket was maintained thereafter. Before each run, the glassy carbon working electrode was polished with diamond suspension in spray (grain size 6 µm) and rinsed with ethanol and deionized water. All experiments were performed at room temperature. The presented results are reported as the mean value of three independent measurements.

[2] = test system: ductal pancreatic adenocarcinoma (CFPAC-1); assay: In vitro antiproliferative activity, CFPAC-1; format: cell-based, human; conditions: CFPAC-1 cells
Protocol: (§1) Antiproliferative activity of compounds 11a−11c, 12a−12c, 13a−13c, 14a−14c, 15a−15c, 16a, 23a−23c, 24a−24c, 25a−25c, 34a−34c and 35a−35c was evaluated in vitro on four human tumor cell lines (American Type Culture Collection, Manassas, VA, USA): metastatic colorectal adenocarcinoma (SW620), ductal pancreatic adenocarcinoma (CFPAC-1), hepatocellular carcinoma (HepG2) and cervical carcinoma (HeLa) as well as normal skin fibroblasts (HFF).

[3] = test system: cervical carcinoma (HeLa); assay: In vitro antiproliferative activity, HeLa; format: cell-based, human; conditions: HeLa cells
Protocol: as §1

[4] = test system: normal skin fibroblasts (HFF); assay: Cytotoxicity on non-tumor cells, HFF; format: cell-based, human
Protocol: as §1

[5] = test system: hepatocellular carcinoma (HepG2); assay: In vitro antiproliferative activity, HepG2; format: cell-based, human; conditions: HepG2 cells
Protocol: as §1

[6] = pH 7.4
Protocol: The distribution coefficient Chrom logD, a parameter used to assess the lipophilicity of compounds [36, 37], was determined for novel purine and purine isosteres with a ferrocene motif as shown in Table 1.
The distribution coefficient, Chrom logD, was determined from compounds’ gradient retention times by employing a high-performance liquid chromatography method with fast acetonitrile gradient. Compounds were prepared for analysis in final concentration of 1.25 mM by dilution of 10 mM stock solutions in DMSO with acetonitrile. Aqueous mobile phase was 50 mM ammonium acetate adjusted with ammonia solution to pH 7.4 and the organic mobile phase was acetonitrile. A reversed phase HPLC column Luna C18, 50 × 3 mm i.d., 5 µm particle size (Phenomenex, Torrance, CA, USA) was used for analysis. Sample injection volume was 2 µL and the flow rate was 1 mL min^−1. All compounds were analysed in duplicates. Fast-gradient elution was as follows: from 0 to 100% of acetonitrile (0−3 min), 100% of acetonitrile (3.0−3.5 min), from 100 to 0% of acetonitrile (3.5−3.7 min), and re-equilibration with 100% of aqueous mobile phase (3.7−5.0 min). All measurements were performed on an HPLC-DAD instrument Agilent 1100 Series (Agilent Technologies, Santa Clara, CA, USA) coupled with a mass spectrometer Micromass Quattro API (Waters, MA, USA). MassLynx software, version 4.1 (Waters, Manchester, UK) was used for data acquisition and processing. Before compound analysis, a calibration step was performed. A set of standard compounds with literature CHI values [36] were plotted against gradient retention times to obtain a calibration equation, which was used to determine CHI value from the compounds’ retention times.

[7] = test system: metastatic colorectal adenocarcinoma (SW620); assay: In vitro antiproliferative activity, SW620; format: cell-based, human; conditions: SW620 cells
Protocol: as §1

| Oxidation peak P2 potential (triazole) [1] | IC50 [2] [µM] | IC50 [3] [µM] | IC50 [5] [µM] | Chrom logD [6] | IC50 [7] [µM] | Structure (SMILES) | IC50 [4] [µM] |
| --- | --- | --- | --- | --- | --- | --- | --- |
| No anodic peak P2 was detected | – | – | – | – | – | Clc1ncnc2nc[nH]c12 [6-chloropurine, reference compound] | – |
| – | > 100 | > 100 | > 100 | >6.57 | > 100 | CC([c-]1cccc1)n1cc(Cn2ccc3cc(I)ccc32)nn1.[Fe+2].c1cc[cH-]c1 (centres unmarked) [Compound 25b, 5-Iodo-1-[1-(1-ferrocenyl-1-methylmethyl-1,2,3-triazol-4-yl)methyl]-1H-indole] | > 100 |
| – | > 100 | 79.4 ± 1.82 | 71.8 ± 3.44 | >6.57 | > 100 | Ic1ccc2c(ccn2Cc2cn(-[c-]3cccc3)nn2)c1.[Fe+2].c1cc[cH-]c1 [Compound 25c, 5-Iodo-1-[1-(1-ferrocenyl-1,2,3-triazol-4-yl)methyl]-1H-indole] | 4.75 ± 1.7 |
| No anodic peak P2 was detected | – | – | – | – | – | C#Cc1cc[cH-]c1.[Fe+2].c1cc[cH-]c1 [ethynyl ferrocene, reference compound] | – |
